Patent publication US20180353500A1, “ADMINISTRATION OF DEUTERATED CFTR POTENTIATORS” (Vertex Pharmaceuticals (Europe) Limited, priority 2015, published 2018)

Key:
[1] = Phase 1 single ascending dose (SAD) clinical trial: pharmacokinetics, safety and tolerability; assay type: in vivo, human; details: for AUC(0-inf): read-out: AUC0-inf, mean; for concentration at 24 h: read-out: C24 hr, mean
Experimental: Ten healthy male and female volunteers were enrolled in a single ascending dose study of 3 doses of CTP-656 (75, 150 and 300 mg), with a cross-over comparison of 150 mg CTP-656 and 150 mg Kalydeco® (the trade name of ivacaftor) (FIG. 5). Doses of CTP-656 were administered as an aqueous suspension, and Kalydeco was administered as a tablet. All doses of CTP-656 and Kalydeco were administered within 30 minutes after the start of a high-fat containing breakfast. There was a 7 day washout between doses. The objective of the study was to compare the pharmacokinetics of single ascending doses (75, 150, and 300 mg) of CTP-656, to compare the pharmacokinetics of a single dose of 150 mg CTP-656 and 150 mg Kalydeco and to assess the safety and tolerability of CTP-656.

[2] = Human crossover study for D9-ivacaftor and ivacaftor (150 mg tablets); assay type: in vivo; details: 150 mg single dose
Experimental: Healthy volunteers were enrolled in a cross-over comparison of 150 mg D9-ivacaftor (CTP-656) and 150 mg ivacaftor (Kalydeco)(FIG. 8, left panel). The objective of the study was to compare the safety, tolerability, and pharmacokinetics of a single dose of 150 mg D9-ivacaftor and 150 mg ivacaftor. Doses of D9-ivacaftor (CTP-656) and ivacaftor were administered as tablets (the D9-ivacaftor was administered as two 75 mg tablets). All doses of D9-ivacaftor (CTP-656) and […] were administered to fed subjects (high fat breakfast) (four subjects per sequence). There was a 7 day washout between doses. Blood samples were taken at intervals.

[3] = Human crossover study for D9-ivacaftor and D18-ivacaftor (25 mg single dose); assay type: in vivo; details: 25 mg single oral dose, aqueous suspension, fasted
Experimental: Six healthy volunteers were enrolled in a cross-over comparison of 25 mg D9-ivacaftor (CTP-656) and 25 mg D18-ivacaftor (FIG. 7A). The objective of the study was to compare the pharmacokinetics of a single dose of 25 mg D9-ivacaftor and 25 mg D18-ivacaftor. Doses of D9-ivacaftor (CTP-656) and D18-ivacaftor were administered as an aqueous suspension. All doses of D9-ivacaftor (CTP-656) and D18-ivacaftor were administered to fasted subjects (three subjects per group). There was a 7 day washout between doses.

[4] = Human multiple ascending dose study for D9-ivacaftor; assay type: in vivo
Experimental: Healthy volunteers were enrolled in a multiple-ascending dose study of D9-ivacaftor (CTP-656) (FIG. 8, right panel). The objective of the study was to compare the safety, tolerability, and pharmacokinetics of D9-ivacaftor at three doses for seven days, compared to placebo. Doses of D9-ivacaftor (CTP-656) and placebo were administered as tablets (the D9-ivacaftor was administered as one, two or three 75 mg tablets, for doses of 75 mg, 150 mg, or 225 mg). All doses of D9-ivacaftor (CTP-656) were administered to fed subjects (high fat breakfast) (8 subjects per sequence received CTP-656, two subjects per sequence received placebo). There was a 7 day washout between doses. Blood samples were taken at intervals and the plasma concentration of CTP-656.

[5] = target: T1, G551D-CFTR (Homo sapiens, UniProt P13569, G551D); test: Chloride transport (short circuit current) in Ussing chamber, G551D-CFTR overexpressed in Fischer Rat Thyroid cells; assay type: cell-based; details: 0.0008-0.1 μM sequential additions, 10 μM forskolin, 35° C.
T1 construct: expressed in transfected cells; host or cells: Fischer Rat Thyroid (FRT) cells
Experimental: Chloride transport of G551D-CFTR overexpressed in Fischer Rat Thyroid cells was measured in an Ussing chamber apparatus. The short circuit current (ISC) was monitored after basolateral permeabilization with 100 μM amphotericin and activation of CFTR by 10 μM forskolin. Testing was performed in the presence of a chloride gradient at 35° C. Test articles were applied in an additive and sequential manner to epithelia at 0.0008 μM, 0.004 μM, 0.02 μM, and 0.1 μM along with 0.5 μL, 2.0 μL, 0.5 μL, and 2.5 μL additions of the DMSO vehicle. Values are the means of responses from each test concentration applied to six epithelia. (FIG. 4A)

[6] = both sexes, human, in vivo, 75 mg single oral dose, after high-fat breakfast
[7] = both sexes, human, in vivo, 150 mg single oral dose, after high-fat breakfast, CTP-656 aqueous suspension, Kalydeco tablet
[8] = both sexes, human, in vivo, 300 mg single oral dose, after high-fat breakfast
[9] = both sexes, human, plasma, 150 mg single oral dose, after high-fat breakfast, CTP-656 aqueous suspension, Kalydeco tablet

T1 sequence (P13569 whole entry G551D): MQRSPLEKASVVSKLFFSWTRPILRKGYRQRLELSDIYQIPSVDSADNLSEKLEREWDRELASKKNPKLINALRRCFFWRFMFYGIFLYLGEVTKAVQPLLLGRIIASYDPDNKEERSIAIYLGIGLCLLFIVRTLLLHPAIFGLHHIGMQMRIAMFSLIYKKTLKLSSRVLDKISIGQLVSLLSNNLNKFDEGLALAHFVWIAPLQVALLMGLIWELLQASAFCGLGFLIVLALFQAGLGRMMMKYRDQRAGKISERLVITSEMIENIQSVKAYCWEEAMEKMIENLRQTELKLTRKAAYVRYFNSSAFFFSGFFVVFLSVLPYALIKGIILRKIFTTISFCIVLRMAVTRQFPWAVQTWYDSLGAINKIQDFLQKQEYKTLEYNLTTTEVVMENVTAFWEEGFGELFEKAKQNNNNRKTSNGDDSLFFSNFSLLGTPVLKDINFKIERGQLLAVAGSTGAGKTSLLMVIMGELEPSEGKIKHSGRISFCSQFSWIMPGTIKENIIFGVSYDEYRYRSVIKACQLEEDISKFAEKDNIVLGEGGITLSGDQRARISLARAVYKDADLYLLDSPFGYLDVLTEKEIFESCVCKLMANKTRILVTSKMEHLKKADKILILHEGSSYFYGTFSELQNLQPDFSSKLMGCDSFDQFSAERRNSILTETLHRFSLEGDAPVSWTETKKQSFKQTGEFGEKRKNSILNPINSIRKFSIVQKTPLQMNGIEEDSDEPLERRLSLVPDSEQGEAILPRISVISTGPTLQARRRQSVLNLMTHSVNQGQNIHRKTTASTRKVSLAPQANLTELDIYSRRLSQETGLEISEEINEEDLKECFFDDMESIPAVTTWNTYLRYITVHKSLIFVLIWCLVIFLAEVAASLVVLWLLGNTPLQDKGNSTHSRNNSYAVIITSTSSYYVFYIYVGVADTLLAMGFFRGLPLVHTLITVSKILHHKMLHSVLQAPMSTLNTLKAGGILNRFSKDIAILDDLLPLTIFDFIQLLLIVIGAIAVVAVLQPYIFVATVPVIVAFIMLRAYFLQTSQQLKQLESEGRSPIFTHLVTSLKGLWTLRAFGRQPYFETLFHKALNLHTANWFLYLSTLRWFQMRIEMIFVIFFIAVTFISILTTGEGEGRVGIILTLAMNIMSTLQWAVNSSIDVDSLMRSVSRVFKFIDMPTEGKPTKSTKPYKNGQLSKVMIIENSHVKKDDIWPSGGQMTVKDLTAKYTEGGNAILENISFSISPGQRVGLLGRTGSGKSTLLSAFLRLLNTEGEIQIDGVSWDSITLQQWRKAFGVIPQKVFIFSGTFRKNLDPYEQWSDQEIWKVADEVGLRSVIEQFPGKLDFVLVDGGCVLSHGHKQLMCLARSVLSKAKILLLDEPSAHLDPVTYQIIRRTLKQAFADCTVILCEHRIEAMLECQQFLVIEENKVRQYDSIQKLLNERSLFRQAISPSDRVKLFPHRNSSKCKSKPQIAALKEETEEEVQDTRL

## [2H]C([2H])([2H])C(c1cc(C(C)(C)C)c(NC(=O)c2c[nH]c3ccccc3c2=O)cc1O)(C([2H])([2H])[2H])C([2H])([2H])[2H] [CTP-656]
[1]; 75 mg single oral dose, after high-fat breakfast
  CL/F, mean: 4.9 L/h
[1]; 75 mg, 150 mg and 300 mg, log-log regression analysis
  relationship between dose and exposure: greater than dose proportional
[1]; 150 mg single oral dose each
  AUC0-inf relative to that of Kalydeco tablets: ~3.5 fold
  C24 hr relative to that of Kalydeco tablets: 4.2 fold
  CL/F relative to that of Kalydeco: ~30%
  Cmax relative to that of Kalydeco tablets: ~2 fold
  Ratio of CTP-656 to Kalydeco, AUC0-24 hr: 2.8
  Ratio of CTP-656 to Kalydeco, C12 hr: 3.2
  Ratio of CTP-656 to Kalydeco, C24 hr: 4.2
  Ratio of CTP-656 to Kalydeco, Cmax: 2.0
  Ratio of CTP-656 to Kalydeco, T1/2: 1.3
[1]; 150 mg single oral dose, after high-fat breakfast, CTP-656 aqueous suspension, Kalydeco tablet
  CL/F, mean: 3.8 L/h
[1]; 300 mg single oral dose, after high-fat breakfast
  CL/F, mean: 3.2 L/h
[1]; CTP-656 75, 150 or 300 mg vs Kalydeco 150 mg
  differences in safety assessments between CTP-656 and Kalydeco: no clinically significant differences
[1]; Phase 1 cross-over comparison, 150 mg
  pharmacokinetic profile compared to Kalydeco: superior pharmacokinetic profile
[1]; both sexes, human, in vivo, oral, 300 mg, across single doses of 75, 150 and 300 mg, read-out: apparent terminal half-life
  half-life: 14 to 17 h
[1]; both sexes, human, in vivo, po, 75 mg, 75 mg single oral dose, after high-fat breakfast, read-out: T1/2, mean (converted)
  half-life: 14.1 h
[1]; both sexes, human, in vivo, po, 150 mg, 150 mg single oral dose, after high-fat breakfast, CTP-656 aqueous suspension, Kalydeco tablet, read-out: T1/2, mean (converted)
  half-life: 15 h
[1]; both sexes, human, in vivo, po, 300 mg, 300 mg single oral dose, after high-fat breakfast, read-out: T1/2, mean (converted)
  half-life: 17.3 h
[1]; [6]
  Cmax: 838 ng/mL
  AUC(0-inf): 16600 ng·h/mL
  concentration at 24 h: 270 ng/mL
[1]; both sexes, human, in vivo, 75 mg single oral dose, after high-fat breakfast, healthy volunteers, read-out: Tmax, median
  Tmax: 5 h
[1]; [7]
  Cmax: 2210 ng/mL
  AUC(0-inf): 44900 ng·h/mL
  concentration at 24 h: 712 ng/mL
[1]; both sexes, human, in vivo, 150 mg single oral dose, after high-fat breakfast, CTP-656 aqueous suspension, Kalydeco tablet, read-out: Tmax, median
  Tmax: 5 h
[1]; [8]
  Cmax: 4970 ng/mL
  AUC(0-inf): 105000 ng·h/mL
  concentration at 24 h: 1540 ng/mL
[1]; both sexes, human, in vivo, 300 mg single oral dose, after high-fat breakfast, read-out: Tmax, median
  Tmax: 5 h
[1]; both sexes, human, plasma, po, 150 mg, 150 mg single oral dose, after high-fat breakfast, CTP-656 aqueous suspension, Kalydeco tablet, read-out: T1/2, mean (converted)
  half-life: 15 h
[1]; [9]
  Cmax: 2210 ng/mL
  concentration at 24 h: 712 ng/mL
[1]; both sexes, human, plasma, 150 mg single oral dose, n = 9, read-out: AUC0-24 hr, mean
  AUC(0-t): 27300 ng·h/mL
[1]; both sexes, human, plasma, 150 mg single oral dose, n = 9, read-out: C12 hr, mean
  concentration at 12 h: 1310 ng/mL
[1]; both sexes, human, plasma, 150 mg single oral dose, n = 9, read-out: Tmax, range
  Tmax: 5 to 10 h
[1]; single oral doses following a high-fat meal, CTP-656 75, 150, 300 mg, Kalydeco 150 mg
  tolerability: generally well tolerated
[2]; fed
  half-life, increase over the half-life of ivacaftor: about 40%
  oral clearance relative to ivacaftor: about one-third that of ivacaftor
[2]; fed (high fat breakfast)
  AUC0-24 hr compared to ivacaftor: approximately 3 fold
  C24 hr compared to ivacaftor: approximately 3 fold
[2]; human, in vivo, oral, fed
  half-life: ~15 h
[3]
  PK profile compared to D18-ivacaftor: superior PK profile
[3]; human, in vivo
  Cmax: 270 ng/mL
[3]; human, in vivo, read-out: AUC0-inf, mean
  AUC(0-inf): 3810 ng·h/mL
[3]; human, in vivo, read-out: C24 hr, mean
  concentration at 24 h: 52.6 ng/mL
[3]; human, in vivo, read-out: Tmax, median
  Tmax: 3 h
[4]; 150 mg dose relative to the 75 mg dose, once daily for seven days
  dose proportionality of exposure with repeated dosing: dose-proportional increase in exposure
[4]; 225 mg dose group, once daily for seven days
  dose proportionality of exposure with repeated dosing: higher than dose-proportional exposure
[4]; 75, 150 or 225 mg once daily for seven days
  adverse events: No serious adverse events were reported
[4]; once daily for seven days
  ratio of CTP-656 to metabolites D-M1 and D-M6 in plasma: greater than one
[4]; once daily for seven days, tablets, fed
  time to steady state plasma levels: after about three days of dosing
[5]
  in vitro CFTR potentiation (short circuit current): equivalent in vitro CFTR potentiation
